# Measured values as given in EP4806892A1, “CEREBLON E3 UBIQUITIN LIGASE INHIBITOR” (GAN & LEE PHARMACEUTICALS CO., LTD., priority 2023, dated 2025).
# Columns and labels:
# [1] = target: T1, AR protein (Homo sapiens, UniProt P10275, T878A); assay: AR protein degradation in LNCaP cells (Western blot); assay type: cell-based; conditions: 8 hours
# T1 construct: AR-positive human prostate cancer cells (LNCaP, cell source: ATCC); host or cells: LNCaP
# Protocol: AR-positive human prostate cancer cells (LNCaP, cell source: ATCC) were cultured in RPMI 1640 (ATCC catalog number 30-2001) containing 10% FBS (Hyclone catalog number SH30406.05), and the cells were inoculated into a six-well microplate (Thermo catalog number 140675) at a density of 1.5 × 10^5 cells/well. After the cells were cultured overnight in a carbon dioxide incubator (ESCO), the prepared compound of the present invention and the positive control sample ARV-766 (source: energy chemical) solution of different concentrations were added at a volume of 1 µL/well to make the final concentrations of the compound and the positive control sample reach 100nM and 10nM, respectively. At the same time, the corresponding solvent control was set and cultured for 8 hours. After 8 hours of culture, the culture medium was removed, the cells were washed with PBS, and RIPA lysis buffer containing 1% Protease Inhibitor Cocktail was added. After lysis and centrifugation, the total protein extract was obtained, and the protein concentration in the extract was detected by BCA method. Protein electrophoresis was performed using SDS-PAGE, and then the protein was transferred to a PVDF (Millipore Sigma catalog number PSRP010R5) membrane at a constant voltage of 100V for 60 minutes. The PVDF membrane was placed in a 5% milk powder 1×TBST solution and blocked at room temperature for 1 hour. The primary antibody solution (Anti-Androgen receptor, Cell Signaling Technology catalog number: 5153S; 1:2000 dilution) was prepared and incubated at 4°C overnight. The primary antibody solution was discarded and the PVDF membrane was washed with 1×TBST for 5 minutes each time, three times. The secondary antibody solution (Thermo, catalog number SA5-35571; 1:7500 dilution) was prepared and incubated at room temperature for 1 hour. The secondary antibody solution was discarded and the PVDF membrane was washed with 1×TBST for 5 minutes each time, three times. A dual-color infrared laser imaging system (Licor catalog number Odyssey CLX) was used for Western membrane imaging. The Image Studio software was used to analyze the grayscale of the bands. GAPDH protein bands were also detected for each sample as an internal reference. The AR protein degradation rate of the compound and the positive control sample was calculated based on the grayscale of the protein bands. Among them, "A" means degradation rate ≥ 50%, "B" means 50%> degradation rate ≥ 20%, "C" means 20% degradation rate ≥ 10%, and "D" means degradation rate less than 10%.
# [2] = system: VCaP cell; assay: VCaP cell proliferation inhibition (WST-8); assay type: cell-based; conditions: Homo sapiens, VCaP cells, 168 hours, read-out: IC50 for inhibiting VCAP cell proliferation
# Protocol: VCaP cells (ATCC, CRL-2876) were cultured in DMEM (Gibco, 11995-065) complete medium containing 10% fetal bovine serum (Hyclone, SH30406.05). On the first day of the experiment, VCaP cells were seeded at a density of 15,000 cells/well in a 96-well plate using DMEM medium containing 10% fetal bovine serum, with 100 µL of cell suspension per well, and cultured overnight in a cell culture incubator at 37°C and 5% CO2. […] The final concentration of the compound was 9 concentration points of 5-fold serial dilution starting from 10 µM. The wells to which 100 µL of DMEM medium containing 10% fetal bovine serum was added were set as blank controls and cultured in a cell culture incubator at 37°C and 5% CO2 for 168 hours. On the ninth day, the 96-well cell culture plate was removed and 1/10 volume of WST-8 (Beytime, C0040) reagent was added to each well. The absorbance at 450 nm was measured using a microplate reader (TECAN, F50).
# T1 sequence (P10275 whole entry T878A): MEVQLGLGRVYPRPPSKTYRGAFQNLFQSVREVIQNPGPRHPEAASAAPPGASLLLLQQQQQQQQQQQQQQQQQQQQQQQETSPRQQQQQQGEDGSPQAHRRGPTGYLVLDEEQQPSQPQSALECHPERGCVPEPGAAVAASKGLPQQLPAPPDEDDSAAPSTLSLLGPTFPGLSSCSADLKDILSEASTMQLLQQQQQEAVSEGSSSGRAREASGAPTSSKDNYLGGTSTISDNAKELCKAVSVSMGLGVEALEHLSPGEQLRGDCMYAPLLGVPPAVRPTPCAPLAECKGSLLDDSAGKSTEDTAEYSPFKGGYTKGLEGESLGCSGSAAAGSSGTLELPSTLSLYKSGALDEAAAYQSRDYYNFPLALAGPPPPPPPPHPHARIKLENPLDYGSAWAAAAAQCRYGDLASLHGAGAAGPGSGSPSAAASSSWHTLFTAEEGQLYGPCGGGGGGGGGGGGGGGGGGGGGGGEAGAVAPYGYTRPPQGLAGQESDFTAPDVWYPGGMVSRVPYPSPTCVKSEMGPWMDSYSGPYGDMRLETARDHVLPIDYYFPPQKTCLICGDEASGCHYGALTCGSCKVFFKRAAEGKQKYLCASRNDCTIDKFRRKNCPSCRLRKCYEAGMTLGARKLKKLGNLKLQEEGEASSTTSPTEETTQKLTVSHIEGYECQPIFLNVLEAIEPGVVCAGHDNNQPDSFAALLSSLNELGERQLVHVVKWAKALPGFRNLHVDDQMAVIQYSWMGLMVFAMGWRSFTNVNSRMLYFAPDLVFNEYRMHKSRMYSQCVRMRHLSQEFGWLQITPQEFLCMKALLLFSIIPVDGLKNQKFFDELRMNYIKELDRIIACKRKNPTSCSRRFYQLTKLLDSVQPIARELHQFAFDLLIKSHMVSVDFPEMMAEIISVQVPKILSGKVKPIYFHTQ
# T1 sequence (Q96SW2 whole entry partner): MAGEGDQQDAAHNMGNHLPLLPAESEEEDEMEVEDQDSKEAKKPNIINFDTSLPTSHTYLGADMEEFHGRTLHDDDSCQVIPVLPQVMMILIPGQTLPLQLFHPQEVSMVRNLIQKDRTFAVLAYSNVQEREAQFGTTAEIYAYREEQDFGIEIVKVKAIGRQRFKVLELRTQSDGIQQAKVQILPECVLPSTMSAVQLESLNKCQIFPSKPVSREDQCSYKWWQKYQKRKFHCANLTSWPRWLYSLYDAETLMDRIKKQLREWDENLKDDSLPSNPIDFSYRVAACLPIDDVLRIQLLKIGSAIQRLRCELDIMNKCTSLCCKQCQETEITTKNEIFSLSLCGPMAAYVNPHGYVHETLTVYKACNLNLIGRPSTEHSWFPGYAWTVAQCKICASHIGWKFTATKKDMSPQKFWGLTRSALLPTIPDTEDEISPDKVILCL
Structure (SMILES),Degradation rate of AR protein in LNCAP cells ([1]; 10 nM),Degradation rate of AR protein in LNCAP cells ([1]; 100 nM),IC50 [2] [nM]
C[C@H]1CC2(CCN(c3ccc(C(=O)N4CCC(CN5CCN6c7ccc(N8CCC(=O)NC8=O)cc7OCC[C@H]6C5)CC4)cc3)CC2)CN1c1ccc(C#N)c(C(F)(F)F)c1 [A-P-195],A (degradation rate ≥ 50%),A (degradation rate ≥ 50%),13
COc1cc(O[C@H]2C(C)(C)[C@H](NC(=O)c3ccc(N4CCC(F)(CN5CCN6c7ccc(N8CCC(=O)NC8=O)cc7OCC[C@H]6C5)CC4)cc3)C2(C)C)ccc1C#N [A-P-196],B (50%> degradation rate ≥ 20%),A (degradation rate ≥ 50%),1
C[C@H]1CC2(CCN(c3ccc(C(=O)N4CCC(CN5CCC6(COc7cc(N8CCC(=O)NC8=O)ccc76)C(F)(F)C5)CC4)cc3)CC2)CN1c1ccc(C#N)c(Cl)c1 (stereo partly drawn) [A-P-233],A (degradation rate ≥ 50%),A (degradation rate ≥ 50%),15
"C[C@H]1CC2(CCN(c3ccc(C(=O)N4CCC(CN5CCC6(CC5)CN(C)c5ccc(N7CCC(=O)NC7=O)cc5O6)CC4)cc3)CC2)CN1c1ccc(C#N)c(Cl)c1 [A-P-235, (S)-2-chloro-4-(8-(4-(4-((7-(2,4-dioxotetrahydropyrimidin-1(2H)-yl)-4-methyl-3,4-dihydrospiro[benzo[b][1,4]oxazin-2,4'-piperidine]-1'-yl)methyl)piperidine-1-carbonyl)phenyl)-3-methyl-2,8-diazaspiro[4.5]decane-2-yl)benzonitrile]",A (degradation rate ≥ 50%),A (degradation rate ≥ 50%),1
"COc1cc(O[C@H]2C(C)(C)[C@H](NC(=O)c3ccc(N4CCC(CN5CCN(c6ccc(C(=O)N[C@H]7CCC(=O)NC7=O)c(F)c6)CC5)CC4)cc3)C2(C)C)ccc1C#N [ARV766, reference compound]",B (50%> degradation rate ≥ 20%),A (degradation rate ≥ 50%),2.5
